Measurements as given in publication PMC9687805 (Biomolecules, 2022).

Columns and labels:
EeAChE PAS = target: T1, EeAChE PAS (Electrophorus electricus, UniProt O42275); assay: biochemical; type: binding; details: 0.25 h; compound 20 μM, EeAChE 7 μM, propidium iodide 8 μM; n.a. = not active; read-out: % Displacement of Propidium from the EeAChE PAS at 20 μM
T1 construct: purchased Sigma-Aldrich type VI-S; host or cells: electric eel
Protocol: Electrophorus electricus (EeAChE) (electric eel, type VI-S, lyophilized powder, Sigma-Aldrich, St. Louis, MO, USA) was used owing to its high degree of purification, high activity, and lower cost than human AChE (hAChE). […] To determine the degree of displacement (% displacement) of propidium from the PAS of AChE, EeAChE (final concentration, 7 μM) was incubated with the test compound at a concentration of 20 μM in 1 mM Tris-HCl buffer pH 8.0, 25 °C, for 15 min. Then, propidium iodide solution (final concentration, 8 μM) was added, the samples were incubated for 15 min, and the fluorescence spectrum (530 nm (excitation) and 600 nm (emission)) was taken. […] The blank contained propidium iodide of the same concentration in 1 mM Tris-HCl buffer, pH 8.0 at 25 °C. The measurements were carried out in triplicate on a FLUOStar Optima microplate reader (LabTech, Ortenberg, Germany), and the results were calculated by the following formula:% Displacement = 100 − (IFAChE + Propidium + inhibitor / IFAChE + Propidium) × 100 (1) where IFAChE + Propidium is the fluorescence intensity of the propidium associated with AChE in the absence of the test compound (taken as 100%), and IFAChE + Propidium + inhibitor is the fluorescence intensity of the propidium associated with AChE in the presence of the test compound.

[1] = ABTS radical cation scavenging activity assay; design: key to ABTS•+-scavenging activity, TEAC: ratio of slopes, tested compound vs Trolox (Trolox = 1); details: n=3, 1 h, 30 °C
Protocol: Radical scavenging activity of the compounds was evaluated by the ABTS radical cation (ABTS^•+) scavenging assay showing the ability of the compounds to decolorize the ABTS^•+ solution [86] with some modifications. Trolox was used as the antioxidant standard; ascorbic acid was used as the comparison compound. All tested compounds and standards were dissolved in DMSO.
The solution of ABTS^•+ was produced by mixing 7 mM ABTS aqueous solution with 2.45 mM potassium persulfate aqueous solution in equal quantities and allowing them to react for 12–16 h at room temperature in the dark. Radical scavenging capacity of the compounds was analyzed by mixing 10 µL of compound with 240 µL of ABTS^•+ working solution in ethanol (100 µM final concentration), and after 1 h of incubation at 30 °C the decrease in absorbance was measured spectrophotometrically at 734 nm using a Bio-Rad xMark microplate UV/VIS spectrophotometer (Bio-Rad, Hercules, CA, USA). The compounds were tested in the concentration range 5 × 10^−7–1 × 10^−4 M. Ethanol blanks were run in each assay. Values were obtained from five replicates of each sample and three independent experiments.
Antioxidant activity was reported as Trolox equivalent antioxidant capacity (TEAC values), consisting of the ratio between the slopes obtained from the linear correlation for concentrations of the tested compounds and Trolox with absorbance of ABTS radical. […] The calculations were carried out using Origin 6.1 for Windows (OriginLab, Northampton, MA, USA). Results are presented as mean ± SEM calculated using GraphPad Prism version 6.05 for Windows, GraphPad Software (San Diego, CA, USA).

equine serum BChE [2] = target: T2, equine serum BChE (Equus caballus, UniProt P81908); assay: Kinetic study of BChE inhibition (Lineweaver-Burk); type: biochemical
T2 construct: purchased Sigma-Aldrich; host or cells: equine serum
Protocol: (§1) Mechanisms of human erythrocyte AChE and equine serum BChE inhibition were assessed via a thorough analysis of enzyme kinetics. Residual activity was measured following 5 min incubation at 25 °C with three increasing concentrations of inhibitor and six decreasing substrate concentrations.

[3] = Ferric reducing antioxidant power (FRAP) assay; details: Trolox equivalents; n=3, 1 h, 37 °C; mean ± SEM
Protocol: The FRAP (Ferric Reducing Antioxidant Power) assay measures the ability of antioxidants to reduce the ferric 2,4,6-tripyridyl-s-triazine complex [Fe(TPTZ)2]^3+ to the intensely blue-colored ferrous complex [Fe(TPTZ)2]^2+ with an absorption maximum at λ = 593 nm. The reducing ability of a compound is an indicator of its potential antioxidant activity.
The ferric reducing ability of the compounds was determined by a previously described method as a microplate-adapted version described in [42]. 2,4,6-tris(pyridin-2-yl)-1,3,5-triazine (TPTZ), FeCl3·6H2O, Trolox, ascorbic acid and DMSO were obtained from Sigma-Aldrich Chemical Co (St. Louis, MO, USA). The FRAP reagent was prepared by mixing acetate buffer (0.3 M, pH 3.6), TPTZ (10 mM in 40 mM HCl) and FeCl3·6H2O (20 mM in distilled water) in a ratio of 10:1:1 immediately before use. Compounds were dissolved in DMSO and tested in the concentration range of 1×10^−6–1×10^−4 M. The solvent content in the reaction mixture was 4% (v/v). The test compounds (10 µL) were added to the FRAP reagent solution (240 µL) and mixed thoroughly. The reaction was carried out at 37 °C in the dark, the incubation time was 1 h. The absorbance at 600 nm was monitored spectrophotometrically by a FLUOStar OPTIMA microplate reader (BMG Labtech, Germany) at 37 °C. Trolox was used as a standard antioxidant, ascorbic acid as a reference compound. Values were obtained from four replicates of each sample and three independent experiments.
The ferric reducing ability of compounds was expressed as TE units (antioxidant activity in Trolox equivalent) with the values calculated as the ratio of the concentrations of Trolox and the test compound resulting in the same effect.

equine serum BChE [4] = target: T2, equine serum BChE; assay: biochemical; details: equine serum BChE; 5 min incubation, 25 °C, pH 7.5; mean ± SEM, n = 3; read-out: Inhibitory activity against BChE, IC50
Protocol: (§2) The assay solution consisted of 0.1 M K/Na phosphate buffer pH 7.5, 25 °C, 0.33 mM DTNB, 0.02 unit/mL AChE or BChE, and 1 mM substrate (ATCh or BTCh, respectively). Reagent blanks consisted of reaction mixtures without substrates.
(§3) Each experiment was performed in triplicate.

Human erythrocyte AChE [5] = target: T3, Human erythrocyte AChE (Homo sapiens, UniProt P22303); assay: biochemical; details: human erythrocyte AChE; 5 min incubation, 25 °C, pH 7.5; mean ± SEM, n = 3; read-out: Inhibitory activity against AChE, IC50
T3 construct: purchased Sigma-Aldrich; host or cells: human erythrocytes
Protocol: as §2, §3

Human erythrocyte AChE [6] = target: T3, Human erythrocyte AChE; assay: Kinetic study of AChE inhibition (Lineweaver-Burk); type: biochemical
Protocol: as §1

porcine liver CES [7] = assay: CES inhibition, 4-nitrophenyl acetate hydrolysis; details: compound 20 μM; mean ± SEM, n = 3; n.a. = not active
Protocol: Final enzyme and substrate (4-nitrophenyl acetate) concentrations were 0.02 unit/mL and 1 mM, respectively. Assays were carried out with a blank containing all constituents except porcine CES to assess non-enzymatic hydrolysis. Measurements were performed with a FLUOStar Optima microplate reader (BMG Labtech, Ortenberg, Germany). Compounds were dissolved in DMSO; the incubation mixture contained 2% (v/v) solvent. The primary evaluation of the inhibitory activity of the compounds was performed by determining the degree of the enzyme inhibition at a compound concentration of 20 µM. For this, a sample of the corresponding enzyme was incubated with the test compound for 5 min; then the enzyme residual activity was determined. Each experiment was performed in triplicate. […] Substrate was then added and residual enzyme activity relative to an inhibitor-free control was measured using a FLUOStar Optima microplate reader.

[8] = design: method as in PMID 33831780; details: cited from earlier work
porcine liver CES [9] = tested on: porcine liver CES; design: method as in PMID 33831780; details: cited from earlier work
[10] = Lineweaver-Burk plot, changes in Km and Vmax

T3 sequence (P22303 32-617 isoform P22303-2 limits assumed): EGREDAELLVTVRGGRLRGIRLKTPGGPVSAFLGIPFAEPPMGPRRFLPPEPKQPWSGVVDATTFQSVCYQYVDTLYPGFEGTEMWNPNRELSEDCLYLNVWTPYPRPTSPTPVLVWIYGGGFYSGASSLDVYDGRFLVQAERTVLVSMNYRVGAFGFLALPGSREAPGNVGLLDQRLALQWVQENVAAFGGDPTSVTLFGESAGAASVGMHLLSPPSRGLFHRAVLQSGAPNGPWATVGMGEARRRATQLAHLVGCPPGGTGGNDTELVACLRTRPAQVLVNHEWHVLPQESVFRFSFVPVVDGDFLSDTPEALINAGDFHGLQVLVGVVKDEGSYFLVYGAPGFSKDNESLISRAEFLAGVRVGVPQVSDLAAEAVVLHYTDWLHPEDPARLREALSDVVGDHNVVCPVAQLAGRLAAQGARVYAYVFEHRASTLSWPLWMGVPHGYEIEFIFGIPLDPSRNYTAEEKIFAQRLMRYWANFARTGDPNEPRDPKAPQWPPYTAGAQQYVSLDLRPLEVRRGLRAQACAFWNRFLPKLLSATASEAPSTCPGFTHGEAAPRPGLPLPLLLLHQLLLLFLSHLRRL
T2 sequence (P81908 whole entry): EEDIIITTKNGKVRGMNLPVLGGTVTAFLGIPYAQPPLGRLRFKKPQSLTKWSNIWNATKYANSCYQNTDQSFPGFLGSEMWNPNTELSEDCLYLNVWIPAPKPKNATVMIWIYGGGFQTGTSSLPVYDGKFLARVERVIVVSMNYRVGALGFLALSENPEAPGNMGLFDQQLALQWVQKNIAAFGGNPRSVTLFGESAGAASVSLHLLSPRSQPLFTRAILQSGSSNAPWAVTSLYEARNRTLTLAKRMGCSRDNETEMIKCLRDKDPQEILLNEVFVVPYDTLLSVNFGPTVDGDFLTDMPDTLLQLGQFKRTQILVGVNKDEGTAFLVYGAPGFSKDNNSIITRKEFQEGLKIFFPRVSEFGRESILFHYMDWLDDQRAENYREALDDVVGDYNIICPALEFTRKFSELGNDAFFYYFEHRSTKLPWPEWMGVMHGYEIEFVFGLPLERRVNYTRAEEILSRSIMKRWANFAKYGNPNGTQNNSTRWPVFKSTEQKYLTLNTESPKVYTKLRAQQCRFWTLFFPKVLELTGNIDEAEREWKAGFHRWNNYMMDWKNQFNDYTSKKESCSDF
T1 sequence (O42275 24-633): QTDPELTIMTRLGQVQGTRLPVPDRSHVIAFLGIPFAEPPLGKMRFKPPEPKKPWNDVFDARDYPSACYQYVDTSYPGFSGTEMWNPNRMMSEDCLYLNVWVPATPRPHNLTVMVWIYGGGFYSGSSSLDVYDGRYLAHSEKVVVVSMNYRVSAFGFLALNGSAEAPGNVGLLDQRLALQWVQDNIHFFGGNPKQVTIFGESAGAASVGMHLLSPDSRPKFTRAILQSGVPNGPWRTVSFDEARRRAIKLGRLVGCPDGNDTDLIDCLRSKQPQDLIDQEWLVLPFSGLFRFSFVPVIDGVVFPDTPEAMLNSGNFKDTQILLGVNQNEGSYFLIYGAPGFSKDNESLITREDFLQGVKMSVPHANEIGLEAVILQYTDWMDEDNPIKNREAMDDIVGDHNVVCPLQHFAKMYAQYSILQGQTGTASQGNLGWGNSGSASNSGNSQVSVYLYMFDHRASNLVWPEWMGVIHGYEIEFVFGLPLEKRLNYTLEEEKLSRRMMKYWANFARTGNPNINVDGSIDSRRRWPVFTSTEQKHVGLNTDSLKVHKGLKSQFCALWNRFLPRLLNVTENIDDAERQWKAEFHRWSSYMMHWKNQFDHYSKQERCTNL

SMILES | inhibition at 20 µM (EeAChE PAS) | ABTS•+-scavenging activity, TEAC ([1]; Trolox equivalent antioxidant capacity, mean ± SEM) | IC50 ([1]; concentration for 50% reduction of ABTS radical cation) | Type of BChE inhibition (equine serum BChE [2]; [10]) | αKi (noncompetitive component), BChE (equine serum BChE [2]; mixed type inhibition) | Ki (equine serum BChE [2]; mixed type inhibition, read-out: Ki (competitive component), BChE) | FRAP (Fe3+-reducing activity), TE [3] | IC50 (equine serum BChE [4]) | IC50 (Human erythrocyte AChE [5]) | Type of AChE inhibition (Human erythrocyte AChE [6]; [10]) | αKi (noncompetitive component), AChE (Human erythrocyte AChE [6]; mixed type inhibition) | Ki (Human erythrocyte AChE [6]; mixed type inhibition, read-out: Ki (competitive component), AChE) | Inhibitory activity against CES, % inhibition at 20 μM (porcine liver CES [7]) | radical-scavenging activity in the ABTS assay [8] | inhibitory activity against CES (porcine liver CES [9])
CC(=O)C(/N=N/c1ccc(C)cc1)=C(\C)NCCCCCCNc1c2c(nc3ccccc13)CCCC2 [6b] | 19 ± 1.3% | 1.00 ± 0.02 | 18600 ± 1400 nM | mixed type of inhibition | 0.224 ± 0.022 µM | 95 ± 8 nM | 0.48 ± 0.04 | 138 ± 2 nM | 342 ± 15 nM | mixed type of inhibition | 0.473 ± 0.041 µM | 254 ± 18 nM | 29.0 ± 0.1% |  | 
Cc1ccc(NN=C(C(=O)c2ccccc2)C(=O)C(F)(F)F)cc1 [1d, 4,4,4-trifluoro-2-[2-(4-methylphenyl)hydrazinylidene]-1-phenylbutane-1,3-dione] |  |  |  |  |  |  |  |  |  |  |  |  |  | high radical-scavenging activity | 
CC(=O)C(=NNc1ccc(C)cc1)C(=O)C(F)(F)F [1c, 1,1,1-trifluoro-3-[2-(4-methylphenyl)hydrazinylidene]pentane-2,4-dione] |  |  |  |  |  |  |  |  |  |  |  |  |  | high radical-scavenging activity | moderate inhibitory activity
